Where two headings read alike, the source gives them in different places.
Experiments:
Assay in all cases: biochemical
Type in all cases: biochemical
[1] = biological target: various β-lactamases (bacterial lysates) (Escherichia coli, UniProt A0A5R8T042); conditions: read-out: AZT IC50 KP1009 CTX-M-15
[2] = biological target: various β-lactamases (bacterial lysates) (Pseudomonas aeruginosa, UniProt P14489); conditions: AZT IC50 KP1007 OXA-10
[3] = biological target: various β-lactamases (bacterial lysates) (Escherichia coli, UniProt A0A649V088); conditions: read-out: AZT IC50 KP1005 CTX-M-14
Chain of various β-lactamases (bacterial lysates) (Escherichia coli, UniProt A0A649V088) (A0A649V088 29-291): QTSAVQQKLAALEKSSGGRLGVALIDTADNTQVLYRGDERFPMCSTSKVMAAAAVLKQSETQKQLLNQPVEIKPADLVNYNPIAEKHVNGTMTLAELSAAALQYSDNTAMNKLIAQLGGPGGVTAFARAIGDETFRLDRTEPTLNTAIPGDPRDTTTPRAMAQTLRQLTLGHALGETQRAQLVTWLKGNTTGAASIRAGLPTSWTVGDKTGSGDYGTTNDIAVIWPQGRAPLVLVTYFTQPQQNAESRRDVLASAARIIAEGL

[4] = biological target: various β-lactamases (bacterial lysates) (Salmonella typhimurium, UniProt P0A1V8); conditions: AZT IC50 KPX1001 OXA-2
Chain of various β-lactamases (bacterial lysates) (Salmonella typhimurium, UniProt P0A1V8) (P0A1V8 22-275): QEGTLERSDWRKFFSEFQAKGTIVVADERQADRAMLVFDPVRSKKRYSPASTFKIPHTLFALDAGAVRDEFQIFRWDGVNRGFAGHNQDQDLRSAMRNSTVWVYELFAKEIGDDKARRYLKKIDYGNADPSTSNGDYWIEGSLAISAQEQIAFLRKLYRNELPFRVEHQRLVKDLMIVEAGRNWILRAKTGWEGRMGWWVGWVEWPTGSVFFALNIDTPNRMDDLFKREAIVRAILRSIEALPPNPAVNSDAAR

[5] = biological target: various β-lactamases (bacterial lysates) (Klebsiella pneumoniae, UniProt Q9F663); conditions: aztreonam cleavage
Chain of various β-lactamases (bacterial lysates) (Klebsiella pneumoniae, UniProt Q9F663) (Q9F663 whole entry, looked up): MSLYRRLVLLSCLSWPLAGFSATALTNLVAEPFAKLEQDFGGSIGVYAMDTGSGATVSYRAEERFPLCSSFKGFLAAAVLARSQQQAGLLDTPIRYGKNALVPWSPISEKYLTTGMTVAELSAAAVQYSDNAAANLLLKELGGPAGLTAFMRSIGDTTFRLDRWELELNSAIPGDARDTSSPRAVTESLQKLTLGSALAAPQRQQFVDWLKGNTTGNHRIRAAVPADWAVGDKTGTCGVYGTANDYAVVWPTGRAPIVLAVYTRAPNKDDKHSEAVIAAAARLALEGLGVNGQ

[6] = biological target: various β-lactamases (bacterial lysates) (Klebsiella pneumoniae, UniProt Q9F663, H272Y)
Chain of various β-lactamases (bacterial lysates) (Klebsiella pneumoniae, UniProt Q9F663, H272Y) (Q9F663 whole entry H272Y, looked up): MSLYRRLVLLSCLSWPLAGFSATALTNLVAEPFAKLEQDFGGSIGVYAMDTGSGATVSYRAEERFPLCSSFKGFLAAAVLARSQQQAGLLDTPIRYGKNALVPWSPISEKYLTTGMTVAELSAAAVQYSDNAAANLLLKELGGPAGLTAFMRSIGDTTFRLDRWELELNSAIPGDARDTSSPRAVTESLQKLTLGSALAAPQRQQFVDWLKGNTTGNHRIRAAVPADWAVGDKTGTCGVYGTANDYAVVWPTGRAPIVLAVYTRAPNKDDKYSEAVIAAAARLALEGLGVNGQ

[7] = lysate KP1004 KPC-2, read-out: AZT IC50 KP1004 KPC-2 (converted)
[8] = lysate KP1008 KPC-2, read-out: AZT IC50 KP1008 KPC-2

Chain of various β-lactamases (bacterial lysates) (Escherichia coli, UniProt A0A5R8T042) (A0A5R8T042 29-291): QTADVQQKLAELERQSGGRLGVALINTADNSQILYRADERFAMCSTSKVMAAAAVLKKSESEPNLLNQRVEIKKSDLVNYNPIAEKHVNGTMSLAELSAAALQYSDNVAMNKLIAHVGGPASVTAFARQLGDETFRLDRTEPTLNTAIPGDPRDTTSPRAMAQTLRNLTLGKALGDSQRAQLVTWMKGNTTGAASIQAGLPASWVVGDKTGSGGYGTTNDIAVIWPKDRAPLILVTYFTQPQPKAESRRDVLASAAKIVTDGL
Chain of various β-lactamases (bacterial lysates) (Pseudomonas aeruginosa, UniProt P14489) (P14489 20-266): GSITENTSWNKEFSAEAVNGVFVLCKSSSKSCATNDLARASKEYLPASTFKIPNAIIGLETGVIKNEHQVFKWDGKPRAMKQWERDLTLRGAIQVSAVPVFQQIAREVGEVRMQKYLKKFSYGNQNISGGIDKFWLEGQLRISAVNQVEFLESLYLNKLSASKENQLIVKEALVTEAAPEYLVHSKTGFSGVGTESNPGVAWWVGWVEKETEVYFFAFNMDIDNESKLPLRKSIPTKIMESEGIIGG

| Compound | IC50 [1] | IC50 [2] | IC50 [3] | IC50 [4] | IC50 [5, 7] | IC50 [5, 8] | IC50 [6] |
| --- | --- | --- | --- | --- | --- | --- | --- |
| NC(Cc1cccnc1)C(=O)N[C@H]1CC[C@@H](CC(=O)O)OB1O (stereo partly drawn) [Compound 42, 2-((3R,6S)-3-(2-amino-3-(pyridin-3-yl)propanamido)-2-hydroxy-1,2-oxaborinan-6-yl)acetic acid] | > 6.23 µM | > 6.23 µM | > 6.23 µM | > 6.23 µM | < 1560 nM | < 1560 nM | < 1560 nM |
| O=C(O)C[C@@H]1CC[C@H](NC(=O)Cc2cccnc2)B(O)O1 [Compound 43, 2-((3R,6S)-2-hydroxy-3-(2-(pyridin-3-yl)acetamido)-1,2-oxaborinan-6-yl)acetic acid] | > 6.85 µM | > 6.85 µM | 1.71 to 6.85 µM | 1.71 to 6.85 µM | < 1710 nM | < 1710 nM | < 1710 nM |
| NCCC(=O)N[C@H]1CC[C@@H](CC(=O)O)OB1O [Compound 34, 2-((3R,6S)-3-(3-aminopropanamido)-2-hydroxy-1,2-oxaborinan-6-yl)acetic acid] | > 8.19 µM | > 8.19 µM | > 8.19 µM | > 8.19 µM | 2050 to 8190 nM | 2050 to 8190 nM | < 2050 nM |
| C[C@]1(Cn2ccnn2)[C@H](C(=O)N[C@H]2CC[C@@H](CC(=O)O)OB2O)N2C(=O)C[C@H]2S1(=O)=O [Compound 59, 2-[(3R,6S)-2-hydroxy-3-[(2S,3 S,5R)-3-methyl-4,4,7-trioxo-3-(1H-1,2,3-triazol-1-ylmethyl)-4λ^6-thia-1-azabicyclo[3.2.0]heptane-2-amido]-1,2-oxaborinan-6-yl]acetic acid] | > 4.39 µM | > 4.39 µM | > 4.39 µM | 1.1 to 4.39 µM | 1100 to 4390 nM | < 1100 nM | 1100 to 4390 nM |
| O=C(O)C[C@@H]1CC[C@H](NC(=O)C[C@@H]2CCCCN2)B(O)O1 [Compound 53, 2-((3R,6S)-2-hydroxy-3-(2-((S)-piperidin-2-yl)acetamido)-1,2-oxaborinan-6-yl)acetic acid] | > 6.71 µM | > 6.71 µM | > 6.71 µM | 1.68 to 6.71 µM | < 1680 nM | 1680 to 6710 nM | 1680 to 6710 nM |
| O=C(O)C[C@@H]1CC[C@H](NC(=O)[C@@H]2CCCCN2)B(O)O1 [Compound 45, 2-((3R,6S)-2-hydroxy-3-((S)-piperidine-2-carboxamido)-1,2-oxaborinan-6-yl)acetic acid] | > 7.04 µM | > 7.04 µM | > 7.04 µM | > 7.04 µM | 1760 to 7040 nM | 1760 to 7040 nM | < 1760 nM |
| O=C(O)C[C@@H]1CC[C@H](NC(=O)c2ccc(Cn3cnnn3)cc2)B(O)O1 [Compound 56, 2-((3R,6S)-3-(4-((1H-tetrazol-1-yl)methyl)benzamido)-2-hydroxy-1,2-oxaborinan-6-yl)acetic acid] | 1.39 to 5.57 µM | > 5.57 µM | < 1.39 µM | 1.39 to 5.57 µM | < 1390 nM | < 1390 nM | < 1390 nM |
| Nc1cc(CC(=O)N[C@H]2CC[C@@H](CC(=O)O)OB2O)ccn1 [Compound 61, 2-((3R,6S)-3-(2-(2-aminopyridin-4-yl)acetamido)-2-hydroxy-1,2-oxaborinan-6-yl)acetic acid] | > 6.51 µM | > 6.51 µM | 1.63 to 6.51 µM | 1.63 to 6.51 µM | < 1630 nM | < 1630 nM | < 1630 nM |
| N[C@H]1CC[C@@H](CC(=O)N[C@H]2CC[C@@H](CC(=O)O)OB2O)CC1 [Compound 50, 2-((3R,6S)-3-(2-(4-aminocyclohexyl)acetamido)-2-hydroxy-1,2-oxaborinan-6-yl)acetic acid] | > 6.41 µM | > 6.41 µM | 1.6 to 6.41 µM | > 6.41 µM | < 1600 nM | < 1600 nM | < 1600 nM |
| N[C@@H](CCC(=O)N[C@H]1CC[C@@H](CC(=O)O)OB1O)C(=O)O [Compound 35, (S)-2-amino-5-((3R,6S)-6-(carboxymethyl)-2-hydroxy-1,2-oxaborinan-3-ylamino)-5-oxopentanoic acid] | > 6.62 µM | > 6.62 µM | > 6.62 µM | > 6.62 µM | > 6620 nM | > 6620 nM | < 1660 nM |
| Cc1nc2ccccc2n1CCC(=O)N[C@H]1CC[C@@H](CC(=O)O)OB1O [Compound 55, 2-((3R,6S)-2-hydroxy-3-(3-(2-methyl-1H-benzo[d]imidazol-1-yl)propanamido)-1,2-oxaborinan-6-yl)acetic acid] | > 5.57 µM | > 5.57 µM | 1.39 to 5.57 µM | 1.39 to 5.57 µM | < 1390 nM | < 1390 nM | < 1390 nM |
| O=C(O)C[C@@H]1CC[C@H](NC(=O)[C@H]2Cc3ccccc3CN2)B(O)O1 [Compound 46, 2-((3R,6S)-2-hydroxy-3-((R)-1,2,3,4-tetrahydroisoquinoline-3-carboxamido)-1,2-oxaborinan-6-yl)acetic acid] | > 6.02 µM | > 6.02 µM | > 6.02 µM | > 6.02 µM | < 1510 nM | < 1510 nM | < 1510 nM |
| O=C(O)C[C@@H]1CC[C@H](NC(=O)Cc2ccncc2)B(O)O1 [Compound 49, 2-((3R,6S)-2-hydroxy-3-(2-(pyridin-4-yl)acetamido)-1,2-oxaborinan-6-yl)acetic acid] | > 6.85 µM | > 6.85 µM | 1.71 to 6.85 µM | 1.71 to 6.85 µM | < 1710 nM | < 1710 nM | < 1710 nM |
| N[C@H](C(=O)N[C@H]1CC[C@@H](CC(=O)O)OB1O)c1ccccc1 [Compound 33, 2-((3R,6S)-3-((S)-2-amino-2-phenylacetamido)-2-hydroxy-1,2-oxaborinan-6-yl)acetic acid] | > 6.53 µM | > 6.53 µM | < 1.63 µM | 1.63 to 6.53 µM | 1630 to 6530 nM | 1630 to 6530 nM | < 1630 nM |
| O=C(O)C[C@@H]1CC[C@H](NC(=O)Cc2cc(F)cc(F)c2)B(O)O1 [Compound 66, 2-((3R,6S)-3-(2-(3,5-difluorophenyl)acetamido)-2-hydroxy-1,2-oxaborinan-6-yl)acetic acid] | > 6.11 µM | > 6.11 µM | 1.53 to 6.11 µM | < 1.53 µM | < 1530 nM | < 1530 nM | < 1530 nM |
| O=C(O)C[C@@H]1CC[C@H](NC(=O)C[C@H]2CCCCN2)B(O)O1 [Compound 52, 2-((3R,6S)-2-hydroxy-3-(2-((R)-piperidin-2-yl)acetamido)-1,2-oxaborinan-6-yl)acetic acid] | > 6.71 µM | > 6.71 µM | > 6.71 µM | > 6.71 µM | < 1680 nM | 1680 to 6710 nM | 1680 to 6710 nM |
| O=C(O)C[C@@H]1CC[C@H](NC(=O)c2cn(C3CC3)c3cc(N4CCNCC4)c(F)cc3c2=O)B(O)O1 [Compound 58, 2-((3R,6S)-3-(1-cyclopropyl-6-fluoro-4-oxo-7-(piperazin-1-yl)-1,4-dihydroquinoline-3-carboxamido)-2-hydroxy-1,2-oxaborinan-6-yl)acetic acid] | > 4.11 µM | > 4.11 µM | 1.03 to 4.11 µM | > 4.11 µM | < 1030 nM | < 1030 nM | < 1030 nM |
| CCOC(=O)C[C@@H]1CC[C@H](NC(=O)Cc2cccs2)B(O)O1 [Compound 65, ethyl 2-((3R,6S)-2-hydroxy-3-(2-(thiophen-2-yl)acetamido)-1,2-oxaborinan-6-yl)acetate] | > 6.15 µM | > 6.15 µM | 1.54 to 6.15 µM | 1.54 to 6.15 µM | 1540 to 6150 nM | 1540 to 6150 nM | > 6150 nM |
| CSCCC(N)C(=O)N[C@H]1CC[C@@H](CC(=O)O)OB1O (stereo partly drawn) [Compound 41, 2-((3R,6S)-3-(2-amino-4-(methylthio)butanamido)-2-hydroxy-1,2-oxaborinan-6-yl)acetic acid] | > 6.58 µM | > 6.58 µM | > 6.58 µM | > 6.58 µM | < 1640 nM | < 1640 nM | < 1640 nM |
| O=C(O)C[C@@H]1CC[C@H](NC(=O)Cc2ccccn2)B(O)O1 [Compound 57, 2-((3R,6S)-2-hydroxy-3-(2-(pyridin-2-yl)acetamido)-1,2-oxaborinan-6-yl)acetic acid] | > 6.85 µM | > 6.85 µM | < 1.71 µM | > 6.85 µM | < 1710 nM | < 1710 nM | < 1710 nM |
| O=C(O)C[C@@H]1CC[C@H](NC(=O)CCc2nnc(-c3ccccc3)o2)B(O)O1 [Compound 60, 2-((3R,6S)-2-hydroxy-3-(3-(5-phenyl-1,3,4-oxadiazol-2-yl)propanamido)-1,2-oxaborinan-6-yl)acetic acid] | 1.34 to 5.36 µM | > 5.36 µM | 1.34 to 5.36 µM | 1.34 to 5.36 µM | < 1340 nM | < 1340 nM | < 1340 nM |
| N=C(N)NCCC[C@@H](N)C(=O)N[C@H]1CC[C@@H](CC(=O)O)OB1O [Compound 47, 2-((3R,6S)-3-((R)-2-amino-5-guanidinopentanamido)-2-hydroxy-1,2-oxaborinan-6-yl)acetic acid] | > 6.08 µM | > 6.08 µM | > 6.08 µM | > 6.08 µM | 1520 to 6080 nM | 1520 to 6080 nM | < 1520 nM |

Reference: patent publication US11090319B2, “Therapeutic uses of pharmaceutical compositions comprising cyclic boronic acid ester derivatives” (Melinta Subsidiary Corp., priority 2010, dated 2021)
